Test results reported in US9028856B2, “Synergistic pesticide compositions” (priority 2008, dated 2015).

What was measured:
[1] = tested on: Argentine ant, Linepithema humile; test: Knockdown/mortality of ant workers under continuous exposure on treated glazed tile; settings: for toxicity / efficacy of the substance alone (summary in words): Argentine ant, treated glazed tile; for Average % Knockdown & Mortality after 2 hr / Average % Knockdown & Mortality after 5 hr: Table 22, imidacloprid/tritylchloride in acetone
Procedure: (§1) Solutions of imidacloprid at 0.5% AI were prepared with and without methyl oleate @0.1, 1.0 and 5.0% in acetone. Treatments were applied using a micropipette to dispense 1 ml of test solution evenly on a 6″×6″ glazed tile. Actual coverage was about 5″×5″ (or 161 cm^2) for easy handling. Treatments were allowed to dry overnight. Ten Argentine ant workers were placed within a fluon or talc-coated PVC ring (φ7.6 cm×H 5.1 cm) under continuous exposure. A small vial filled with a cotton ball soaked in water was added as a drinking source after 3 hours. Treatments were replicated a minimum of three times. Evaluations for ant knockdown/mortality were made at various intervals and at 24 hours after exposure.
as §1, with “MATERIALS AND METHODS: Solutions” for “Solutions”, “linoleate” for “oleate”
as §1, with “MATERIALS AND METHODS: Solutions of” for “Solutions of”, “without methyl palmitate @0.1, 1.0” for “without methyl oleate @0.1, 1.0”, “after exposure. […]” for “after exposure.”

[2] = tested on: bait averse/resistant German cockroach (T-164 strain); test: Knockdown/mortality of male cockroaches under continuous exposure on treated glazed tile; type: in vivo, Blattella germanica; design: Average % Knockdown & Mortality after 5 hr / Average % Knockdown & Mortality after 30 min: concentration or dose not given beside the values; settings: for toxicity / efficacy of the substance alone (summary in words): German cockroach T-164, treated glazed tile; for Average % Knockdown & Mortality after 3 hr: Table 23, imidacloprid/tritylchloride in acetone, T-164 strain
[3] = tested on: Red Imported Fire ant (RIFA), Solenopsis invicta; test: Knockdown/mortality of ant workers under continuous exposure on treated glazed tile; type: in vivo; settings: Table 72, β-cyfluthrin study, Red Imported Fire ant; for Average % Mortality after 15 min: glazed tile, continuous exposure, adjuvant = Compound A 1% + Compound B 0.5%
Text: Treatments were allowed to dry overnight. […] Treatments were replicated minimum three times.
Treatments were allowed to dry overnight. […] Treatments were replicated a minimum of three times.

[4] = Table 10 (Ex. 7), glazed tile, continuous exposure, listed as Methyl Linoleate (1%)
[5] = Table 10 (Ex. 7), glazed tile, continuous exposure, listed as Methyl Linoleate (5%)
[6] = Table 8 (Ex. 5), glazed tile, continuous exposure, listed as Methyl Oleate (1%)
[7] = Table 8 (Ex. 5), glazed tile, continuous exposure, listed as Methyl Oleate (5%)
[8] = Table 7 (Ex. 4), glazed tile, continuous exposure, listed as Oleic acid (0.1%)
[9] = Table 7 (Ex. 4), glazed tile, continuous exposure, listed as Oleic acid (5%)
[10] = Table 19 (Ex. 16), glazed tile, continuous exposure
[11] = Table 19 (Ex. 16), glazed tile, continuous exposure, listed as TBHQ (0.1%)
[12] = Table 19 (Ex. 16), glazed tile, continuous exposure, listed as TBHQ (1%)
[13] = Table 19 (Ex. 16), glazed tile, continuous exposure, listed as TBHQ (5%)
[14] = Table 18 (Ex. 15), glazed tile, continuous exposure, listed as TBHQ (1%)
[15] = Table 18 (Ex. 15), glazed tile, continuous exposure, listed as TBHQ (5%)
[16] = glazed tile, continuous exposure

SMILES: CCCCC/C=C\C/C=C\CCCCCCCC(=O)OC [Methyl linoleate, methyl linoleate]
- toxicity / efficacy of the substance alone (summary in words) [1]: at high rates (1 & 5%) was toxic
- Average % Knockdown & Mortality after 4 hr ([1]; Table 10 (Ex. 7), glazed tile, continuous exposure, listed as Methyl Linoleate (0.1%)): 0%
- Average % Knockdown & Mortality after 15 min [1, 4]: 0%
- Average % Knockdown & Mortality after 4 hr [1, 4]: 7%
- Average % Knockdown & Mortality after 15 min [1, 5]: 7%
- Average % Knockdown & Mortality after 4 hr [1, 5]: 67%
- toxicity / efficacy of the substance alone (summary in words) [2]: toxic
- Average % Knockdown & Mortality after 15 min ([2]; Table 11 (Ex. 8), glazed tile, continuous exposure): 0%

SMILES: CCCCCCCC/C=C\CCCCCCCC(=O)OC [Methyl oleate, methyl oleate]
- toxicity / efficacy of the substance alone (summary in words) [1]: toxic
- Average % Knockdown & Mortality after 4 hr ([1]; Table 8 (Ex. 5), glazed tile, continuous exposure, listed as Methyl Oleate (0.1%)): 13%
- Average % Knockdown & Mortality after 15 min [1, 6]: 0%
- Average % Knockdown & Mortality after 4 hr [1, 6]: 55%
- Average % Knockdown & Mortality after 15 min [1, 7]: 3%
- Average % Knockdown & Mortality after 4 hr [1, 7]: 100%
- toxicity / efficacy of the substance alone (summary in words) [2]: at the higher rates (1 & 5%) showed delayed toxic effect
- Average % Knockdown & Mortality after 15 min ([2]; Table 9 (Ex. 6), glazed tile, continuous exposure, listed as Methyl Oleate (1%)): 0%
- Average % Knockdown & Mortality after 15 min ([2]; Table 9 (Ex. 6), glazed tile, continuous exposure, listed as Methyl Oleate (5%)): 7%

SMILES: CCCCCCCCCCCCCCCC(=O)OC [Methyl palmitate, methyl palmitate]
- toxicity / efficacy of the substance alone (summary in words) [1]: not toxic
- Average % Knockdown & Mortality after 3 hr ([1]; Table 12 (Ex. 9), glazed tile, continuous exposure): 0%
- Average % Knockdown & Mortality after 7 hr ([1]; Table 12 (Ex. 9), glazed tile, continuous exposure, listed as Methyl Palmitate (1%)): 0%
- Average % Knockdown & Mortality after 7 hr ([1]; Table 12 (Ex. 9), glazed tile, continuous exposure, listed as Methyl Palmitate (5%)): 7%
- toxicity / efficacy of the substance alone (summary in words) [2]: not toxic
- Average % Knockdown & Mortality after 4 hr ([2]; Table 13 (Ex. 10), glazed tile, continuous exposure): 0%

SMILES: CCCCCCCC/C=C\CCCCCCCC(=O)O [Oleic acid]
- toxicity / efficacy of the substance alone (summary in words) [1]: at the high rates (1 & 5%) was toxic to the Argentine ants, but not at the low rate (0.1%)
- Average % Knockdown & Mortality after 3 hr [1, 8]: 0%
- Average % Knockdown & Mortality after 7 hr [1, 8]: 0%
- Average % Knockdown & Mortality after 3 hr ([1]; Table 7 (Ex. 4), glazed tile, continuous exposure, listed as Oleic acid (1%)): 82%
- Average % Knockdown & Mortality after 3 hr [1, 9]: 100%
- Average % Knockdown & Mortality after 7 hr [1, 9]: 100%
- toxicity / efficacy of the substance alone (summary in words) [2]: toxic to German cockroaches at the high rate (5%), but not toxic at the two low rates
- Average % Knockdown & Mortality after 15 min ([2]; Table 6 (Ex. 3), glazed tile, continuous exposure): 0%

SMILES: CC(C)(C)c1cc(O)ccc1O [TBHQ, tertiary butyl dihydroxyquinone]
- toxicity / efficacy of the substance alone (summary in words) [1]: toxic effect
- Average % Knockdown & Mortality after 30 min [1, 10]: 0%
- Average % Knockdown & Mortality after 1 hr [1, 10]: 0%
- Average % Knockdown & Mortality after 6 hr [1, 11]: 7%
- Average % Knockdown & Mortality after 24 hr [1, 11]: 11%
- Average % Knockdown & Mortality after 4 hr [1, 12]: 0%
- Average % Knockdown & Mortality after 6 hr [1, 12]: 10%
- Average % Knockdown & Mortality after 4 hr [1, 13]: 10%
- Average % Knockdown & Mortality after 6 hr [1, 13]: 23%
- Average % Knockdown & Mortality after 24 hr [1, 13]: 100%
- toxicity / efficacy of the substance alone (summary in words) [2]: at the higher rates (1 & 5%) showed delayed toxic effect
- Average % Knockdown & Mortality after 30 min ([2]; Table 18 (Ex. 15), glazed tile, continuous exposure): 0%
- Average % Knockdown & Mortality after 24 hr ([2]; Table 18 (Ex. 15), glazed tile, continuous exposure, listed as TBHQ (0.1%)): 7%
- Average % Knockdown & Mortality after 1 hr [2, 14]: 0%
- Average % Knockdown & Mortality after 2 hr [2, 14]: 0%
- Average % Knockdown & Mortality after 4 hr [2, 14]: 0%
- Average % Knockdown & Mortality after 24 hr [2, 14]: 40%
- Average % Knockdown & Mortality after 1 hr [2, 15]: 7%
- Average % Knockdown & Mortality after 2 hr [2, 15]: 7%
- Average % Knockdown & Mortality after 4 hr [2, 15]: 7%
- Average % Knockdown & Mortality after 24 hr [2, 15]: 47%

SMILES: ClC(c1ccccc1)(c1ccccc1)c1ccccc1 [Tritylchloride (0.1%)]
- Average % Knockdown & Mortality after 2 hr [1, 16]: 0%
- Average % Knockdown & Mortality after 5 hr [1, 16]: 0%
- Average % Knockdown & Mortality after 3 hr ([2]; glazed tile): 0%

SMILES: ClC(c1ccccc1)(c1ccccc1)c1ccccc1 [Tritylchloride (1%)]
- Average % Knockdown & Mortality after 2 hr [1, 16]: 0%
- Average % Knockdown & Mortality after 5 hr [1, 16]: 0%
- Average % Knockdown & Mortality after 3 hr ([2]; glazed tile): 0%

SMILES: ClC(c1ccccc1)(c1ccccc1)c1ccccc1 [Tritylchloride (5%)]
- Average % Knockdown & Mortality after 2 hr [1, 16]: 0%
- Average % Knockdown & Mortality after 5 hr [1, 16]: 0%
- Average % Knockdown & Mortality after 3 hr ([2]; glazed tile): 0%

SMILES: ClC(c1ccccc1)(c1ccccc1)c1ccccc1 [Tritylchloride, triphenyl methyl chloride (tritylchloride)]
- toxicity / efficacy of the substance alone (summary in words) [1]: not toxic
- toxicity / efficacy of the substance alone (summary in words) [2]: not toxic

SMILES: O=C(O)CCc1ccccc1 [benzenepropanoic acid]
- toxicity / efficacy of the substance alone (summary in words) [1]: not toxic
- Average % Knockdown & Mortality after 3 hr ([1]; Table 4 (Ex. 1), glazed tile, continuous exposure): 0%
- Average % Knockdown & Mortality after 7 hr ([1]; Table 4 (Ex. 1), glazed tile, continuous exposure, listed as Benzenepropanoic acid(1%)): 0%
- Average % Knockdown & Mortality after 7 hr ([1]; Table 4 (Ex. 1), glazed tile, continuous exposure, listed as Benzenepropanoic acid(5%)): 7%
- toxicity / efficacy of the substance alone (summary in words) [2]: slightly to not toxic
- Average % Knockdown & Mortality after 15 min ([2]; Table 5 (Ex. 2), glazed tile, continuous exposure): 0%

SMILES: CC1(C)C(C=C(Cl)Cl)C1C(=O)OC(C#N)c1ccc(F)c(Oc2ccccc2)c1 (stereo not drawn) [β-cyfluthrin (.001%)]
- Average % Mortality after 15 min [3]: 39%
- Average % Mortality after 30 min [3]: 100%
- Average % Mortality after 60 min [3]: 100%
- Average % Mortality after 24 hr [3]: 100%

SMILES: CC1(C)C(C=C(Cl)Cl)C1C(=O)OC(C#N)c1ccc(F)c(Oc2ccccc2)c1 (stereo not drawn) [β-cyfluthrin (.005%)]
- Average % Mortality after 15 min [3]: 100%
- Average % Mortality after 30 min [3]: 100%
- Average % Mortality after 60 min [3]: 100%
- Average % Mortality after 24 hr [3]: 100%
